ΔTm and GI50 data for 17 compounds are collected here from patent publication EP4806898A1, “HETEROARYL DERIVATIVE COMPOUND AND USE THEREOF” (Voronoi Inc., priority 2023, dated 2025).

Read-outs that look alike come from different tables or passages of the source.

The target in one assay is T1, recombinant USP1 protein (Homo sapiens, UniProt O94782, DEL125-138/DEL229-408/DEL608-737).
T1 sequence (O94782 with tags, fused parts or gaps DEL125-138/DEL229-408/DEL608-737): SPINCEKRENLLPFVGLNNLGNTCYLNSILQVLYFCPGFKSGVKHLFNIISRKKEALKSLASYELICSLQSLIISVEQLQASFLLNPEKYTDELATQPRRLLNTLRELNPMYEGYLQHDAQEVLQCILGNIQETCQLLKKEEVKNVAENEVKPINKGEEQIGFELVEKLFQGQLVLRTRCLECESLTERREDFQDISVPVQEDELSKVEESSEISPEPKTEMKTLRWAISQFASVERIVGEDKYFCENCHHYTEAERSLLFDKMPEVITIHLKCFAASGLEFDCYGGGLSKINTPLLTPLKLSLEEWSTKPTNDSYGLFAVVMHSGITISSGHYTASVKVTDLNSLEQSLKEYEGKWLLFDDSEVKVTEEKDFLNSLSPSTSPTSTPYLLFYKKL
Briefly: Binding affinity to recombinant USP1 protein by differential scanning fluorimetry. To be noted: read-out: ΔTm (°C). In outline: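 Thermal shift readout: ΔTm is the compound-well melting temperature less the DMSO-well value, measured by real-time PCR. Compounds tested at 100 µM final against 0.03 mg/mL truncated USP1 (Δ1-66, Δ125-138, Δ229-408, Δ608-737) in pH 8.0 Tris buffer containing 150 mM NaCl, 2% glycerol, 1 mM DTT.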
Background: In DSF a fluorescence change marks the thermal transition of the protein.

The next assay deals with UWB1.289 cells. Briefly: Cell proliferation inhibitory activity in BRCA1/2-mutant or HRD-positive cells (Cell Titer-Glo). The assay is classed as cell-based. Conditions: read-out: GI50 UWB1.289 BRCA1 mut. In a few lines:
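GI50 from CellTiter-Glo luminescence after 144 h compound exposure at 37 °C. Cells seeded at 1,000 per well in MEBM/RPMI1640 mix 16–24 h beforehand; […] from 10 µM down to 1.5 nM final (3-fold steps).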

[1] abbreviates: compound 100 µM, 0.03 mg/mL USP1 (Δ1-66, Δ125-138, Δ229-408, Δ608-737), Tm with compound minus Tm with DMSO.
Where [2] appears, read: UWB1289, UWB1.289 cells, 144 hours after compound treatment, Cell Titer-Glo, 1.5 nM to 10 µM.

The term ΔTm denotes the change in melting temperature against a reference sample. For orientation: GI50 means the concentration that inhibits growth by half. `COc1ncnc(C2CC2)c1-c1ncc2cc(C(=O)N3CC(F)(F)C3)n(Cc3ccc(-c4nc(C(F)(F)F)cn4C(C)C)cc3)c2n1` [Example 40, (2-(4-cyclopropyl-6-methoxypyrimid in-5-yl)-7-(4-(1-isopropyl-4-(trifluoromethyl)-1H-imidazol-2-yl)benzyl)-7H-pyrrolo[2,3-d]pyrimidin-6-yl) (3,3-difluoroazetid in-1-yl)methanone]: the shift in melting temperature (ΔTm) at 100 µM on recombinant USP1 protein (setting [1]) is greater than 5 °C. Besides, the GI50 in the assay with UWB1.289 cells (setting [2]) lay within 100 to 500 nM.
On the same counts, the results for `COc1ncnc(C2CC2)c1-c1ncc2cc(C(=O)N3CCN4CCCC4C3)n(Cc3ccc(-c4nc(C(F)(F)F)cn4C(C)C)cc3)c2n1` (stereo not shown) [Example 55, (2-(4-cyclopropyl-6-methoxypyrimid in-5-yl)-7-(4-(1-isopropyl-4-(trifluoromethyl)-1H-imidazol-2-yl)benzyl)-7H-pyrrolo[2,3-d]pyrimidin-6-yl) (hexahydrop yrrolo[1,2-a]pyrazin-2 (1H) - yl)methanone] are greater than 5 °C and 100 to 500 nM.
On the same counts, the results for `CNC(=O)c1cc2cnc(-c3c(OC)ncnc3C3CC3)nc2n1Cc1ccc(-c2nc(C(F)(F)F)c3ccccn23)cc1` [Example 208, 2-(4-cyclopropyl-6-methoxypyrimidin-5-yl)-N-methyl-7-(4-(1-(trifluoromethyl)imidazol[1,5-a]pyridin-3-yl)benzyl)-7H-pyrrolo[2,3-d]pyrimidine-6-carboxamide] are greater than 5 °C and less than 100 nM.
For `COc1ncnc(C2CC2)c1-c1ncc2cc(C(=O)N[C@H](C)CCO)n(Cc3ccc(-c4nc(C(F)(F)F)cn4C(C)C)cc3)c2n1` [Example 83, (R)-2-(4-cyclopropyl-6-methoxypyrimidin-5-yl)-N-(4-hydroxybutan-2-yl)-7-(4-(1-isopropyl-4-(trifluoromethyl)-1H-imidazol-2-yl)benzyl)-7H-pyrrolo[2,3-d]pyrimidine-6-carboxamide], in that order: greater than 5 °C and less than 100 nM.
Turning to `COc1ncnc(C2CC2)c1-c1ncc2cc(C(=O)NC3CN(C)C3)n(Cc3ccc(-c4nc(C(F)(F)F)cn4C)cc3)c2n1` [Example 171, 2-(4-cyclopropyl-6-methoxypyrimidin-5-yl)-7-(4-(1-methyl-4-(trifluoromethyl)-1H-imidazol-2-yl)benzyl)-N-(1-methylazetidin-3-yl)-7H-pyrrolo[2,3-d]pyrimidine-6-carboxamide], on recombinant USP1 protein (setting [1]), the thermal shift (ΔTm) at 100 µM is greater than 5 °C. The GI50 in the assay with UWB1.289 cells (setting [2]) is less than 100 nM.
On the same counts, the results for `COc1ncnc(C2CC2)c1-c1ncc2cc(C(=O)NC3(C)CC(F)(F)C3)n(Cc3ccc(-c4nc(C(F)(F)F)cn4C(C)C)cc3)c2n1` [Example 116, 2-(4-cyclopropyl-6-methoxypyrimidin-5-yl)-N-(3,3-difluoro-1-methylcyclobutyl)-7-(4-(1-isopropyl-4-(trifluoromethyl)-1H-imidazol-2-yl)benzyl)-7H-pyrrolo[2,3-d]pyrimidine-6-carboxamide] are greater than 5 °C and less than 100 nM.
On the same counts, the results for `COc1ncnc(C2CC2)c1-c1ncc2cc(C(=O)N3CCOC4(CCC4)C3)n(Cc3ccc(-c4nc(C(F)(F)F)cn4C(C)C)cc3)c2n1` [Example 56, (2-(4-cyclopropyl-6-methoxypyrimid in-5-yl)-7-(4-(1-isopropyl-4-(trifluoromethyl)-1H-imidazol-2-yl)benzyl)-7H-pyrrolo[2,3-d]pyrimidin-6-yl) (5-oxa-8-azaspiro[3.5]nonan-8-yl)methanone] are greater than 5 °C and 100 to 500 nM.
For `COc1ncnc(C2CC2)c1-c1ncc2cc(C(=O)N[C@@H](C)CO)n(Cc3ccc(-c4nc(C(F)(F)F)cn4C)cc3)c2n1` [Example 166, (S)-2-(4-cyclopropyl-6-methoxypyrimidin-5-yl)-N-(1-hydroxypropan-2-yl)-7-(4-(1-methyl-4-(trifluoromethyl)-1H-imidazol-2-yl)benzyl)-7H-pyrrolo[2,3-d]pyrimidine-6-carboxamide], in that order: greater than 5 °C and less than 100 nM.
`COc1ncnc(C2CC2)c1-c1ncc2cc(C(=O)N[C@H]3CCN(C)C[C@@H]3F)n(Cc3ccc(-c4nc(C(F)(F)F)cn4C)cc3)c2n1` [Example 167, 2-(4-cyclopropyl-6-methoxypyrimidin-5-yl)-N-((3S,4S)-3-fluoro-1-methylpiperidin-4-yl)-7-(4-(1-methyl-4-(trifluoromethyl)-1H-imidazol-2-yl)benzyl)-7H-pyrrolo[2,3-d]pyrimidine-6-carboxamide]: at recombinant USP1 protein (setting [1]), the ΔTm at 100 µM is greater than 5 °C. Besides, the concentration for 50% growth inhibition (GI50) in the assay on UWB1.289 cells (setting [2]) is less than 100 nM.
For `COc1ncnc(C2CC2)c1-c1ncc2cc(C(=O)N3CCCC(O)C3)n(Cc3ccc(-c4nc(C(F)(F)F)cn4C(C)C)cc3)c2n1` (stereo not shown) [Example 67, (2-(4-cyclopropyl-6-methoxypyrimid in-5-yl)-7-(4-(1-isopropyl-4-(trifluoromethyl)-1H-imidazol-2-yl)benzyl)-7H-pyrrolo[2,3-d]pyrimidin-6-yl) (3-hydroxypiperid in-1-yl)methanone], in that order: greater than 5 °C and less than 100 nM.
For the compound `COc1ncnc(C2CC2)c1-c1ncc2cc(C(=O)NCCO)n(Cc3ccc(-c4nc(C(F)(F)F)cn4C(C)C)cc3)c2n1` [Example 157, 2-(4-cyclopropyl-6-methoxypyrimidin-5-yl)-N-(2-hydroxyethyl)-7-(4-(1-isopropyl-4-(trifluoromethyl)-1H-imidazol-2-yl)benzyl)-7H-pyrrolo[2,3-d]pyrimidine-6-carboxamide], the thermal shift (ΔTm) at 100 µM on recombinant USP1 protein (setting [1]) was greater than 5 °C. Moreover, the GI50 in the assay on UWB1.289 cells (setting [2]) is less than 100 nM.
On to `COc1ncnc(C2CC2)c1-c1ncc2cc(C(=O)NCCF)n(Cc3ccc(-c4nc(C(F)(F)F)cn4C(C)C)cc3)c2n1` [Example 21, 2-(4-cyclopropyl-6-methoxypyrimidin-5-yl)-N-(2-fluoroethyl)-7-(4-(1-isopropyl-4-(trifluoromethyl)-1H-imidazol-2-yl)benzyl)-7H-pyrrolo[2,3-d]pyrimidine-6-carboxamide], for which the ΔTm at 100 µM on recombinant USP1 protein is greater than 5 °C. The 50% growth inhibitory concentration (GI50) in the assay with UWB1.289 cells (UWB1289, 144 h) is less than 100 nM.
Take `COc1ncnc(C2CC2)c1-c1ncc2cc(C(=O)NC[C@@H]3CCCO3)n(Cc3ccc(-c4nc(C(F)(F)F)cn4C(C)C)cc3)c2n1` [Example 124, (S)-2-(4-cyclopropyl-6-methoxypyrimidin-5-yl)-7-(4-(1-isopropyl-4-(trifluoromethyl)-1H-imidazol-2-yl)benzyl)-N-((tetrahydrofuran-2-yl)methyl)-7H-pyrrolo[2,3-d]pyrimidine-6-carboxamide]: at recombinant USP1 protein (setting [1]), the ΔTm at 100 µM was greater than 5 °C. Further, the 50% growth inhibitory concentration (GI50) in the assay on UWB1.289 cells (setting [2]) is less than 100 nM.
On the same counts, the results for `COc1ncnc(C2CC2)c1-c1ncc2cc(C(=O)NCCN3CCC3)n(Cc3ccc(-c4nc(C(F)(F)F)cn4C(C)C)cc3)c2n1` [Example 149, N-(2-(azetidin-1-yl)ethyl)-2-(4-cyclopropyl-6-methoxypyrimidin-5-yl)-7-(4-(1-isopropyl-4-(trifluoromethyl)-1H-imidazol-2-yl)benzyl)-7H-pyrrolo[2,3-d]pyrimidine-6-carboxamide] are greater than 5 °C and less than 100 nM.
As for `COc1ncnc(C2CC2)c1-c1ncc2cc(C(=O)NCC3(C)CC(F)(F)C3)n(Cc3ccc(-c4nc(C(F)(F)F)cn4C(C)C)cc3)c2n1` [Example 20, 2-(4-cyclopropyl-6-methoxypyrimidin-5-yl)-N-((3,3-difluoro-1-methylcyclobutyl)methyl)-7-(4-(1-isopropyl-4-(trifluoromethyl)-1H-imidazol-2-yl)benzyl)-7H-pyrrolo[2,3-d]pyrimidine-6-carboxamide], the ΔTm at 100 µM on recombinant USP1 protein (setting [1]) was greater than 5 °C. For the same compound, the GI50 in the assay with UWB1.289 cells (setting [2]) fell in the range of 100 to 500 nM.
Turning to `COc1ncnc(C2CC2)c1-c1ncc2cc(C(=O)N[C@@H]3CCN(C)C[C@H]3F)n(Cc3ccc(-c4nc(C(F)(F)F)cn4C)cc3)c2n1` [Example 165, 2-(4-cyclopropyl-6-methoxypyrimidin-5-yl)-N-((3R,4R)-3-fluoro-1-methylpiperidin-4-yl)-7-(4-(1-methyl-4-(trifluoromethyl)-1H-imidazol-2-yl)benzyl)-7H-pyrrolo[2,3-d]pyrimidine-6-carboxamide], the thermal shift (ΔTm) at 100 µM at recombinant USP1 protein (setting [1]) is greater than 5 °C. Besides, the GI50 in the assay on UWB1.289 cells (setting [2]) was less than 100 nM.
As for `COc1ncnc(C2CC2)c1-c1ncc2cc(C(=O)N[C@@H]3CCN(C)C[C@@H]3F)n(Cc3ccc(-c4nc(C(F)(F)F)cn4C)cc3)c2n1` [Example 161, 2-(4-cyclopropyl-6-methoxypyrimidin-5-yl)-N-((3S,4R)-3-fluoro-1-methylpiperidin-4-yl)-7-(4-(1-methyl-4-(trifluoromethyl)-1H-imidazol-2-yl)benzyl)-7H-pyrrolo[2,3-d]pyrimidine-6-carboxamide], on recombinant USP1 protein (setting [1]), the ΔTm at 100 µM was greater than 5 °C. For the same compound, in the assay with UWB1.289 cells (setting [2]), the concentration for 50% growth inhibition (GI50) is less than 100 nM.
